Values of other authors, collected in patent publication US7700798B1, “Erogorgiaene congeners and methods and intermediates useful in the preparation of same” (The Research Foundation of State University of New York, priority 2005, dated 2010).

Settings: literature statement, comparison with the commercially used natural products

In the case of Elisabethadione, the “anti-inflammatory potency compared with the pseudopterosins” value is listed as “more potent than the related and commercially used natural products, the pseudopterosins”.
